Experimental data published in ChEMBL document CHEMBL5236579, “Hydrophobicity Determines the Bacterial Killing Rate of α-Helical Antimicrobial Peptides and Influences the Bacterial Resistance Development” (J Med Chem, 2022).
pKd: −log10 of the molar value. Converted amounts (≈) assume the structure as drawn. The source made the active and inactive calls. No cut-off for these calls is given here. Where a SMILES comes first, the peptide text is derived from it.

Assays:
Staphylococcus aureus [1] = assay: Antimicrobial activity against Staphylococcus aureus ATCC25923 by two fold broth microdilution method; assay type: functional; settings: read-out: MIC
Escherichia coli [2] = assay: Antimicrobial activity against Escherichia coli ATCC27622 by two fold broth microdilution method; assay type: functional
Vibrio parahaemolyticus [3] = assay: Induction of bacterial resistance in Vibrio parahaemolyticus ATCC17802 assessed as fold increase in MIC treated over 30 serial passages measured after 24 hrs; assay type: functional
Staphylococcus aureus [4] = assay: Antimicrobial activity against clinical isolates Staphylococcus aureus by two fold broth microdilution method; assay type: functional
Bacillus cereus = assay: Antimicrobial activity against clinical isolates Bacillus cereus by two fold broth microdilution method; assay type: functional
Vibrio parahaemolyticus [5] = assay: Antimicrobial activity against Vibrio parahaemolyticus ATCC17802 by two fold broth microdilution method; assay type: functional
Cell membrane [6] = assay: Induction of outer membrane permeabilization in Escherichia coli ATCC25722 assessed as increase fluorescence intensity at 0.5 to 2 times of MIC by NPN uptake assay; assay type: cell membranes; settings: time <= 15.0 min, TDE = time-dependent effect
[7] = Effect on morphological changes in POPC/POPG (3:1) bilayer membrane assessed as formation of bulge aggregates by measuring the height of bulges at 2 ug/ml incubated for 40 mins under neutral pH and low ionic strength by atomic force microscopic analysis; assay type: cell membranes; settings: Cell membrane, dose 2.0 µg/ml
Escherichia coli [8] = assay: In vivo antibacterial activity against Escherichia coli ATCC25722 infected in Balb/c mouse model assessed as reduction in bacterial CFU count on skin at 20 ug/ml incubated for 6 hrs post infection and measured after 2 hrs post compound treatment; assay type: functional, organism-based; settings: dose 20.0 µg/ml, time 8.0 hrs
HaCaT = assay: Cytotoxicity against human HaCaT cells incubated for 48 hrs by MTT assay; assay type: toxicity, cell-based; settings: dose < 250 µg/ml
Lipopolysaccharide (LPS) [9] = assay: Binding affinity to Escherichia coli LPS assessed as LPS neutralizing activity measured after 5 mins by LPS neutralization assay
Peritoneal macrophage = assay: Cytotoxicity against mouse peritoneal macrophage cells incubated for 48 hrs by MTT assay; assay type: toxicity, cell-based; settings: dose < 250 µg/ml
Vibrio parahaemolyticus [10] = assay: Induction of morphological changes in Vibrio parahaemolyticus ATCC17802 assessed as surface fibrosis incubated at 5 times MIC and measured after 60 mins by scanning electron microscopy based analysis; assay type: functional, organism-based
Lipopolysaccharide (LPS) [11] = assay: Binding affinity to Escherichia coli LPS assessed as dissociation constant measured upto 600 sec by surface plasmon resonance imaging method
Cell membrane [12] = assay: Binding affinity to Vibrio parahaemolyticus ATCC17802 cell membrane assessed as increase in fluorescence intensity measured after 30 mins by flow cytometry analysis (reference value: 1.85%); assay type: cell membranes
Cell membrane [13] = assay: Induction of outer membrane permeabilization in Vibrio parahaemolyticus ATCC17802 assessed as increase fluorescence intensity at 0.5 to 2 times of MIC by NPN uptake assay; assay type: cell membranes; settings: time <= 15.0 min, TDE = time-dependent effect
Vibrio parahaemolyticus [14] = assay: Induction of morphological changes in Vibrio parahaemolyticus ATCC17802 assessed as massive cell collapse incubated at 5 times MIC and measured after 60 mins by scanning electron microscopy based analysis; assay type: functional, organism-based
Escherichia coli [15] = assay: In vivo antibacterial activity against Escherichia coli ATCC25722 infected in Balb/c mouse model assessed as reduction in bacterial CFU count on skin at 20 ug/ml applied 4 hrs after infection and measured after 120 mins; assay type: functional, organism-based; settings: dose 20.0 µg/ml
Cell membrane [16] = assay: Induction of cytoplasmic membrane permeabilization in Vibrio parahaemolyticus […] assessed as calcein transmembrane diffusion into interior of gaint unilamellar vesicles by measuring time to equilibrium between inside and outside of vesicles at 2 ug/mL by confocal microscopy based calcein-AM leakage assay; assay type: cell membranes; settings: dose 2.0 µg/ml
Cell membrane [17] = assay: Binding affinity to Vibrio parahaemolyticus ATCC17802 cell membrane assessed as increase in fluorescence intensity measured after 120 mins by flow cytometry analysis (reference value: 1.88%); assay type: cell membranes
Cell membrane [18] = assay: Induction of inner membrane permeabilization in Vibrio parahaemolyticus ATCC17802 assessed as increase in PI fluorescence intensity at 5 times MIC by propidium iodide penetration assay; assay type: cell membranes; settings: time <= 200.0 min
Cell membrane [19] = assay: Induction of outer membrane permeabilization in Escherichia coli ATCC25722 assessed as increase fluorescence intensity measured upto 15 mins by NPN uptake assay; assay type: cell membranes
Cell membrane [20] = assay: Induction of inner membrane permeabilization in Vibrio parahaemolyticus ATCC17802 at 5 times MIC measured upto 200 mins by propidium iodide penetration assay; assay type: cell membranes
[21] = Hemolytic activity in human erythrocytes measured after 30 mins; assay type: toxicity, cell-based; settings: erythrocyte, 0.5 h
Vibrio parahaemolyticus [22] = assay: Induction of morphological changes in Vibrio parahaemolyticus ATCC17802 assessed as cellular inclusion leakage incubated at 5 times MIC and measured after 60 mins by scanning electron microscopy based analysis; assay type: functional, organism-based
Cell membrane [23] = assay: Induction of inner membrane permeabilization in Vibrio parahaemolyticus ATCC17802 assessed as calcein leakage at 5 times MIC by calcein-AM leakage assay; assay type: cell membranes; settings: time <= 200.0 min, TDE = time-dependent effect
Cell membrane [24] = assay: Induction of outer membrane permeabilization in Vibrio parahaemolyticus ATCC17802 assessed as increase fluorescence intensity measured upto 15 mins by NPN uptake assay; assay type: cell membranes
Vibrio parahaemolyticus [25] = assay: Bactericidal activity against Vibrio parahaemolyticus ATCC17802 assessed as killing rate at 0.5 X MIC by measuring time limit of detection by bacterial killing kinetic assay; assay type: functional
Escherichia coli [26] = assay: Bactericidal activity against Escherichia coli ATCC25722 assessed as killing rate at 0.5 X MIC measured upto 180 min by bacterial killing kinetic assay; assay type: functional, organism-based
Staphylococcus aureus [27] = assay: Bactericidal activity against Staphylococcus aureus ATCC25923 assessed as killing rate at 0.5 X MIC measured upto 180 min by bacterial killing kinetic assay; assay type: functional, organism-based
Cell membrane [28] = assay: Induction of bacterial inner membrane permeabilization in Vibrio parahaemolyticus ATCC17802 assessed as calcein leakage from large unilamellar vesicles liposomes at 5 times MIC by fluorescence based microplate reader assay; assay type: cell membranes; settings: time <= 60.0 min, TDE = time-dependent effect

Row | SMILES | MIC (Staphylococcus aureus [1]) [µg/mL] | MIC (Escherichia coli [2]) [µg/mL] | fold change (FC) (Vibrio parahaemolyticus [3]) | MIC (Staphylococcus aureus [4]) [µg/mL] | MIC (Bacillus cereus) [µg/mL] | MIC (Vibrio parahaemolyticus [5]) [µg/mL] | Activity (Cell membrane [18]) | Activity (Cell membrane [20]) | Activity (Cell membrane [23]) | Time (Vibrio parahaemolyticus [25]) [min] | also measured
1 | CC1(C)S[C@@H]2[C@H](NC(=O)[C@H](N)c3ccccc3)C(=O)N2[C@H]1C(=O)O [AMPICILLIN] | 0.59 (≈ 1.69 µM) | 2.34 (≈ 6.7 µM) | 32 | > 200 | 4.69 (≈ 13.4 µM) | 0.59 (≈ 1.69 µM) | – | – | – | – | –
2 | CC[C@H](C)[C@H](NC(=O)[C@H](CC(C)C)NC(=O)[C@H](CCCNC(=N)N)NC(=O)[C@H](CC(C)C)NC(=O)[C@H](CC(C)C)NC(=O)[C@H](CCCCN)NC(=O)[C@H](CCCCN)NC(=O)[C@H](Cc1ccccc1)NC(=O)[C@H](CC(C)C)NC(=O)CNC(=O)[C@@H](N)CC(C)C)C(=O)N[C@@H](CCCCN)C(=O)N[C@@H](CCCCN)C(=O)NCC(=O)N[C@@H](Cc1ccccc1)C(=O)N[C@@H](CCCCN)C(=O)N[C@@H](CCCCN)C(=O)O (H-LGLFKKLLRLIKKGFKK-OH) | 2.34 (≈ 1.15 µM) | 9.38 (≈ 4.62 µM) | 2 | 18.8 (≈ 9.23 µM) | 4.69 (≈ 2.31 µM) | 4.69 (≈ 2.31 µM) | Active | Active | Tde | 60 | Activity (Cell membrane [6]): Tde; Activity [7]: 1 nm; Activity (Escherichia coli [8]): Active; Activity (HaCaT): Dose-Dependent Effect; Activity (Lipopolysaccharide (LPS) [9]): inactive; Activity (Peritoneal macrophage): Dose-Dependent Effect; Activity (Vibrio parahaemolyticus [10]): Active; pKd (Lipopolysaccharide (LPS) [11]): 4.31; Activity (Cell membrane [12]): 64.3%; Activity (Cell membrane [13]): Tde; Activity (Vibrio parahaemolyticus [14]): Active; Activity (Escherichia coli [15]): Active; TIME (Cell membrane [16]): < 0.25 h; Activity (Cell membrane [17]): 99.4%; Activity (Cell membrane [19]): Dose-Dependent Effect; Activity [21]: Toxic; Activity (Vibrio parahaemolyticus [22]): Active; Activity (Cell membrane [24]): Dose-Dependent Effect
3 | CC[C@H](C)[C@H](NC(=O)[C@H](CCCCN)NC(=O)[C@H](CC(C)C)NC(=O)[C@H](C)NC(=O)CNC(=O)[C@H](CC(N)=O)NC(=O)[C@H](CC(C)C)NC(=O)[C@@H](NC(=O)[C@H](CCCCN)NC(=O)[C@H](CCCCN)NC(=O)[C@H](Cc1c[nH]c2ccccc12)NC(=O)[C@H](Cc1ccccc1)NC(=O)[C@H](CCCCN)NC(=O)[C@H](CCCNC(=N)N)NC(=O)[C@H](CCCNC(=N)N)NC(=O)[C@@H](N)[C@@H](C)O)C(C)C)C(=O)N[C@@H](C)C(=O)O (H-TRRKFWKKVLNGALKIA-OH) | 4.69 (≈ 2.31 µM) | 9.38 (≈ 4.62 µM) | – | 18.8 (≈ 9.24 µM) | 9.38 (≈ 4.62 µM) | 4.69 (≈ 2.31 µM) | – | – | – | 30 | Activity (Escherichia coli [26]): Active; Activity (Staphylococcus aureus [27]): Active
4 | CC[C@H](C)[C@H](NC(=O)[C@H](CC(C)C)NC(=O)[C@H](CCCNC(=N)N)NC(=O)[C@H](CC(C)C)NC(=O)[C@H](CC(C)C)NC(=O)[C@H](CCCCN)NC(=O)[C@H](CCCCN)NC(=O)[C@H](Cc1ccccc1)NC(=O)[C@H](CC(C)C)NC(=O)CNC(=O)[C@@H](N)CC(C)C)C(=O)N[C@@H](CCCCN)C(=O)N[C@@H](CCCCN)C(=O)NCC(=O)N[C@@H](Cc1ccccc1)C(=O)N[C@@H](CCCCN)C(=O)N[C@@H](CC(C)C)C(=O)O (H-LGLFKKLLRLIKKGFKL-OH) | 1.17 (≈ 0.58 µM) | 9.38 (≈ 4.65 µM) | – | 9.38 (≈ 4.65 µM) | 9.38 (≈ 4.65 µM) | 4.69 (≈ 2.33 µM) | Active | Active | Tde | 30 | Activity (Cell membrane [28]): Tde
